One may read the EC50 as the midpoint of the concentration-response curve.

The target of assay [1] is T1, Estrogen receptor (Rattus norvegicus) (UniProt P06211+Q62986).
For assay [2], the species on record is Rattus norvegicus.
For assay [3], the target named is T1, Estrogen receptor (Rattus norvegicus). The assay is described as follows: In vivo estrogenic receptor potency relative to ethynylestradiol in rat. In kind it is functional, organism-based.
For assay [4] the target is unchanged. This is another data set of the same source.
Description: In vivo uterotrophic effect in immature rats
Assay [5] shares this target. The source holds these as a separate data set.
Assay [6] concerns Rattus norvegicus. The assay is described as follows: In vivo […] activity in rats. Type of assay: functional.
Assay [7] relates to Rattus norvegicus. The assay is described as follows: In vivo antifertility potency in rats at 200 ug/kg/day. In kind it is functional.
In assay [8] the target is T2, Estrogen receptor (Homo sapiens, UniProt Q92731+P03372). The assay is described as follows: Displacement of [3H]estradiol from estrogen receptor in squirrel monkey. In kind it is protein assay. On the technique in general: Displacement assays read how much labelled ligand stays bound in the presence of the test substance.
In assay [9] the target is T2, Estrogen receptor. The assay is described as follows: Estrogenic effect in rhesus monkey relative to ethynylestradiol. Type of assay: functional. The following applies: Macaca mulatta; target entry is the homologue from another species.
Assay [10] relates to Rattus norvegicus. The assay is described as follows: In vivo anti-fertility activity in rat. In kind it is functional.
Assay [11] addresses T3, Estrogen receptor (Rattus norvegicus, UniProt P06211+Q62986).
For assay [12], the target named is T2, Estrogen receptor. The assay is described as follows: Displacement of [3H]estradiol from estrogen receptor in immature rabbit. Type of assay: protein assay, Oryctolagus cuniculus. Particulars: target entry is the homologue from another species.
Assay [13] has as its target T3, Estrogen receptor. This is another data set of the same source.

The structures appear in SMILES notation. In brackets after ≈: the same amount, converted by molar mass.

In [1], `CCCC[C@H]1CC[C@H]2[C@@H]3CCc4cc(O)ccc4[C@H]3CC[C@]12C` registered an Estrogenic potency of 0.4. The Antifertility potency in the assay filed under Rattus norvegicus [2] is on record as <10.
In assay [1], `CC(=O)[C@H]1CC[C@H]2[C@@H]3CCc4cc(O)ccc4[C@H]3CC[C@]12C` yielded an Estrogenic potency of 0.01. The Antifertility potency in the assay listed under Rattus norvegicus [2] is reported as <4.
In [1], `CC[C@H]1CC[C@H]2[C@@H]3CCc4cc(O)ccc4[C@H]3CC[C@]12C` (stereo in doubt; 8i) [listing 1 of 2 here] gave an Estrogenic potency of 0.16.
For `C=C(C)[C@H]1CC[C@H]2[C@@H]3CCc4cc(O)ccc4[C@H]3CC[C@]12C`, the Estrogenic potency in assay [1] was determined as 0.08. Further, the Antifertility potency in the assay listed under Rattus norvegicus [2] is <10.
`C[C@]12CC[C@@H]3c4ccc(O)cc4CC[C@H]3[C@@H]1CC[C@@H]2CO` displayed an Estrogenic potency in assay [1] of 0.03. The Antifertility potency in the assay filed under Rattus norvegicus [2] is reported as <110.
The corresponding values for `CCC/C=C1\CC[C@H]2[C@@H]3CCc4cc(O)ccc4[C@H]3CC[C@]12C` are 0.2 and <20.
The corresponding values for `C=C1CC[C@H]2[C@@H]3CCc4cc(O)ccc4[C@H]3[C@H](O)C[C@]12C` are 0.02 and 10.
In [1], `C[C@]12CC[C@@H]3c4ccc(O)cc4CC[C@H]3[C@@H]1CC/C2=N\Nc1ccccn1` registered an Estrogenic potency of 0.1. Besides, the Antifertility potency in the assay listed under Rattus norvegicus [2] is given as <4.
In the case of `CC[Si](C#C[C@]1(O)CC[C@H]2[C@@H]3CCc4cc(O)ccc4[C@H]3CC[C@@]21C)(CC)CC`, the Estrogenic potency in assay [1] is 37. Besides, in the assay listed under Rattus norvegicus [2], the Antifertility potency was 600.
The corresponding values for `C[C@H]1CC[C@H]2[C@@H]3CCc4cc(O)ccc4[C@H]3CC[C@]12C` are 0.3 and 20.
In turn, `C[C@]12CC[C@@H]3c4ccc(O)cc4CC[C@H]3[C@@H]1CCC2=S` registered an Estrogenic potency in [1] of 2.4.
In assay [1], `C[C@]12CC[C@@H]3c4ccc(O)cc4CC[C@H]3[C@@H]1CC[C@@H]2C#N` had an Estrogenic potency of 0.05. Further, in the assay listed under Rattus norvegicus [2], the Antifertility potency was <10.
On the same counts, the results for `CC[Si](C#C[C@H]1CC[C@H]2[C@@H]3CCc4cc(O)ccc4[C@H]3CC[C@]12C)(CC)CC` are 0.04 and <4.
Turning to `CC[C@H]1CC[C@H]2[C@@H]3CCc4cc(O)ccc4[C@H]3CC[C@]12C` (stereo in doubt; 8b) [listing 1 of 2 here], the Estrogenic potency in assay [3] came out at 1. The Uterotrophic effect in assay [4] amounted to 1; in assay [5] it was 11.
`C#C[C@]1(O)CC[C@H]2[C@@H]3CCc4cc(O)ccc4[C@H]3CC[C@@]21C` [ETHINYL ESTRADIOL] yielded an Infertility activity in the assay on Rattus norvegicus [6] of 100. In the assay listed under Rattus norvegicus [2], the Antifertility potency is 100.
As to `C[C@]12CC[C@@H]3c4ccc(O)cc4CC[C@H]3[C@@H]1CC/C2=N\N`, in assay [1], the Estrogenic potency is 1.6. For the same compound, the Antifertility potency in the assay listed under Rattus norvegicus [2] is listed as <10.
On the same counts, the results for `CC(F)(F)[C@H]1CC[C@H]2[C@@H]3CCc4cc(O)ccc4[C@H]3CC[C@]12C` are 0.09 and <20.
Turning to `C=C1CC[C@H]2[C@@H]3[C@H](O)Cc4cc(O)ccc4[C@H]3CC[C@]12C`, the Estrogenic potency in assay [1] was determined as 0.1. Besides, the Antifertility potency in the assay listed under Rattus norvegicus [2] was <20.
On the same counts, the results for `CC[C@H]1CC[C@H]2[C@@H]3CCc4cc(O)ccc4[C@H]3[C@@](C)(O)C[C@]12C` are 0.05 and <20.
`C[C@]12CC[C@@H]3c4ccc(O)cc4CC[C@H]3[C@@H]1CC/C2=N\O`: the Antifertility potency with Rattus norvegicus [7] is given as 4. The compound also gave an Estrogenic potency in assay [1] of 0.28.
As to `CC[C@H]1CC[C@H]2[C@@H]3CCc4cc(O)ccc4[C@H]3[C@@H](O)C[C@]12C`, the EC50 on Estrogen receptor [8] turned out to be 22 µg/mL (≈ 73.2 µM); on Estrogen receptor [11], 5.6 µg/mL (≈ 18.6 µM). Further, the Estrogenic effect at Estrogen receptor [9] was < 8. The Antifertility activity in the assay with Rattus norvegicus [10] stood at 20. For the same compound, in assay [1], the Estrogenic potency stood at 0.03. Moreover, the Antifertility potency in the assay listed under Rattus norvegicus [2] is on record as 20. Moreover, the Uterotrophic effect in assay [4] was found to be 0.04; in [5], 2.
In turn, `[2H]C([2H])=C1CC[C@H]2[C@@H]3CCc4cc(O)ccc4[C@H]3CC[C@]12C` returned an Antifertility potency in the assay listed under Rattus norvegicus [2] of 67.
As to `CC[C@H]1CC[C@H]2[C@@H]3CCc4cc(O)ccc4[C@H]3CC[C@]12C` (stereo in doubt; 8i) [listing 2 of 2 here], the Antifertility potency in the assay listed under Rattus norvegicus [2] was <40.
Turning to `COc1ccc2c(c1)CC[C@@H]1[C@@H]2CC[C@@]2(C)[C@H]1CC[C@@]2(O)c1ccccc1`, the Estrogenic potency in assay [1] came out at 0.69. The same compound showed an Antifertility potency in the assay filed under Rattus norvegicus [2] of 10.
In assay [1], `CC[C@H]1CC[C@H]2[C@@H]3[C@H](O)Cc4cc(O)ccc4[C@H]3CC[C@]12C` had an Estrogenic potency of 0.04. For the same compound, the Antifertility potency in the assay listed under Rattus norvegicus [2] is <10.
Compound `C=C1C[C@]2(C)[C@@H](CC)CC[C@H]2[C@@H]2CCc3cc(O)ccc3[C@@H]12` yielded an Estrogenic potency in assay [1] of 64. Also, the Antifertility potency in the assay listed under Rattus norvegicus [2] is listed as 400.
On the same counts, the results for `C/C=C1\CC[C@H]2[C@@H]3CCc4cc(O)ccc4[C@H]3CC[C@]12C` are 0.3 and 10.
With `COc1ccc2c(c1)CC[C@@H]1[C@@H]2CC[C@]2(C)[C@@H](c3ccccc3)CC[C@@H]12`, the Estrogenic potency in assay [1] is < 0.1. In the assay listed under Rattus norvegicus [2], the Antifertility potency is on record as <4.
For `CC[C@H]1CC[C@H]2[C@@H]3CCc4cc(O)ccc4[C@H]3CC[C@]12C` (stereo in doubt; 8b) [listing 2 of 2 here], the EC50 at Estrogen receptor [8] stood at 60 µg/mL (≈ 211 µM); at Estrogen receptor [12], 11 µg/mL (≈ 38.7 µM); at Estrogen receptor [11] it was 20 µg/mL (≈ 70.3 µM); on Estrogen receptor [13] it was 8 µg/mL (≈ 28.1 µM). This compound also gave an Infertility activity in the assay on Rattus norvegicus [6] of 66. For the same compound, the Antifertility potency in the assay filed under Rattus norvegicus [2] stood at 66.
The compound `C[C@]12CC[C@@H]3c4ccc(O)cc4CC[C@H]3[C@@H]1CC/C2=C\C=O` displayed an Estrogenic potency in assay [1] of 0.05. Besides, the Antifertility potency in the assay filed under Rattus norvegicus [2] is on record as 10.
In [1], `CC[Si](CC)(CC)CC[C@H]1CC[C@H]2[C@@H]3CCc4cc(O)ccc4[C@H]3CC[C@]12C` returned an Estrogenic potency of 0.27. Also, the Antifertility potency in the assay listed under Rattus norvegicus [2] amounted to 10.
Take `CC/C=C1\CC[C@H]2[C@@H]3CCc4cc(O)ccc4[C@H]3CC[C@]12C`: in assay [1], the Estrogenic potency came out at 0.4. The Antifertility potency in the assay filed under Rattus norvegicus [2] is <20.
On the same counts, the results for `C#C[C@H]1CC[C@H]2[C@@H]3CCc4cc(O)ccc4[C@H]3CC[C@]12C` are 0.07 and <10.
`C=C[C@H]1CC[C@H]2[C@@H]3CCc4cc(O)ccc4[C@H]3CC[C@]12C` yielded an Estrogenic potency in assay [1] of 0.26. This compound showed an Antifertility potency in the assay filed under Rattus norvegicus [2] of 10.
As to `C#C[C@]1(O)CC[C@H]2[C@@H]3CCc4cc(O)ccc4[C@H]3[C@@H](OC)C[C@@]21C` [MOXESTROL], in assay [1], the Estrogenic potency was found to be 2000. In addition, the Antifertility potency in the assay listed under Rattus norvegicus [2] was 1000.
Take `CCC[C@H]1CC[C@H]2[C@@H]3CCc4cc(O)ccc4[C@H]3CC[C@]12C`: the Estrogenic potency in [1] came to 0.8. For the same compound, the Antifertility potency in the assay filed under Rattus norvegicus [2] is 20.
Turning to `C=C1CCC2C3C=Cc4cc(O)ccc4C3CCC12C` (centres undefined), the Estrogenic potency in assay [1] came to 0.04. Also, the Antifertility potency in the assay listed under Rattus norvegicus [2] is given as <5.
Take `CC12CCC3c4ccc(O)cc4CCC3C1C=CC2C#N` (centres undefined): the Antifertility potency in the assay on Rattus norvegicus [7] is <4. In addition, the Estrogenic potency in assay [1] is < 0.1.
In turn, `CC[C@H]1CC[C@H]2[C@@H]3CCc4cc(O)ccc4[C@H]3[C@@H](OC)C[C@]12C` came in with an Estrogenic potency in [1] of 37. Moreover, in the assay filed under Rattus norvegicus [2], the Antifertility potency is given as >2000.
Regarding `COc1ccc2c(c1)CCC1C2CCC2(C)C1C=C[C@@]2(O)c1ccccc1` (some centres undefined), in the assay with Rattus norvegicus [7], the Antifertility potency was <10. For the same compound, the Estrogenic potency in [1] came out at 0.14.
`CC[C@H]1CC[C@H]2[C@@H]3C(C)Cc4cc(O)ccc4[C@H]3CC[C@]12C` (some centres undefined) came in with an Estrogenic potency in assay [1] of 15. For the same compound, the Antifertility potency in the assay listed under Rattus norvegicus [2] is <200.
On to `CC[C@H]1CC[C@H]2[C@@H]3CCc4cc(O)ccc4[C@H]3C(=O)C[C@]12C`, for which the Antifertility potency in the assay filed under Rattus norvegicus [2] is >1000.
Consider `C/C=C1/CC[C@H]2[C@@H]3CCc4cc(O)ccc4[C@H]3[C@H](O)C[C@]12C`, for which, in assay [1], the Estrogenic potency is 0.04. For the same compound, the Antifertility potency in the assay listed under Rattus norvegicus [2] is <7.
`CO/N=C1\CC[C@H]2[C@@H]3CCc4cc(O)ccc4[C@H]3CC[C@]12C` gave an Antifertility potency in the assay with Rattus norvegicus [7] of 4. Further, the Estrogenic potency in [1] is 0.04.

The values above are taken from ChEMBL document CHEMBL1124539, “17-Desoxy estrogen analogues” (J Med Chem, 1989).
